The source of these data is article PMC11628845 (Acta Pharmaceutica Sinica. B, 2024).

One data set deals with wild type HBV (pHBV 1.3). The data set is described as follows: microbe, parasite or virus in culture. In kind it is cell-based. Conditions: read-out: HBeAg IC50.
Data set [1] concerns HBV. In words: HBVcircle transfection system in Huh7 cells. In kind it is cell-based, Hepatitis B virus. Conditions: 0.1-200 μmol/L, 48 h.
Another data set can be described thus: in vivo. On the set-up: species or system ICR mouse.
The subject of data set [2] is wild-type HBV (genotype C). The data set is described as follows: microbe, parasite or virus in culture. In kind it is cell-based. The conditions noted are these: Hepatitis B virus.
The next data set has as its target Cp149 protein (Hepatitis B virus genotype D subtype ayw, UniProt P03146). In words: biochemical. Conditions: read-out: inhibition of capsid formation.
The test system of another data set is HBV genotypes A‒D. The data set is described as follows: Antiviral activity across HBV genotypes A‒D in Huh7. Type of data set: cell-based. The conditions noted are these: Hepatitis B virus, Huh-7, read-out: IC50 across HBV genotypes.
The test system of data set [3] is ETV-resistant HBV (rtL180M + A181C + M204V). In words: microbe, parasite or virus in culture. Type of data set: cell-based. The conditions noted are these: Hepatitis B virus.
The test system of data set [4] is HBV. In words: HBV infection of HepG2-NTCP cells, secreted HBeAg by ELISA. Background: In an ELISA, binding on a coated surface is turned into a signal by an enzyme label.
In data set [5] the test system is HBV. Conditions: cited from earlier work.
In another data set the target is HBcAg (Hepatitis B virus genotype D subtype ayw, UniProt P03146). Type of data set: cell-based.
Chain of HBcAg (P03146 whole entry): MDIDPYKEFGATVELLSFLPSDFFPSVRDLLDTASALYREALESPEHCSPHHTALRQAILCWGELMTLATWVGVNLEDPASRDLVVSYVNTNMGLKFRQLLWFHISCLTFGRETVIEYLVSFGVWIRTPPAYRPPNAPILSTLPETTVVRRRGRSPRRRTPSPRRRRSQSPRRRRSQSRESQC
The mark [6] stands for this setting: Huh-7, read-out: HBeAg IC50, rt180M181C204V.

Read-outs that look alike come from different tables or passages of the source.

Chain of Cp149 protein (P03146 1-149): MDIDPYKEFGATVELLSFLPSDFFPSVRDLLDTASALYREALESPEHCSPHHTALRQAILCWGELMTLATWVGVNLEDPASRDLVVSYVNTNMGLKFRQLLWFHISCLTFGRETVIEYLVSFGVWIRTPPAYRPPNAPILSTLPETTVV

As for `COc1ccc(Cc2nc(NC(=O)C34CC5CC(CC(C5)C3)C4)n(C)c2Cc2ccc(OC)c(OC)c2)cc1` [11a, (Z)-N-(5-(3,4-Dimethoxybenzyl)-4-(4-methoxybenzyl)-1-methyl-1,3-dihydro-2H-imidazole-2-ylidene)adamantane-1-carboxamide], in the data set with HBV (pHBV1.3) (50 mpk b.i.d., intraperitoneal), the “HBV DNA vs control group” value was “no statistical difference”. Further, in the data set on HBV (pHBV1.3) (50 or 100 mpk b.i.d.), the “serum HBeAg and HBsAg levels” value is “None of these treatments altered serum HBeAg and HBsAg levels”. Moreover, the “reduction of HBV DNA in plasma” value in the data set on HBV (pHBV1.3) (100 mpk b.i.d., intraperitoneal, Day 5) is given as 4 fold. In addition, the “antiviral effect of combination with TDF” value in the data set with HBV (pHBV1.3) (TDF 2 mpk q.d. and 11a 100 mpk b.i.d.) is “weak synergistic antiviral effects”. Moreover, the “serum ALT and AST levels or body weight” value with HBV (pHBV1.3) (control vs experimental groups) is given as “no significant changes”. Further, in the data set with HBV (pHBV1.3) (mouse, in vivo), the “H&E staining in liver tissues” value is on record as “no obvious pathological changes”. Moreover, in the data set on HBV (pHBV1.3) (mouse, in vivo), the “levels of HBcAg in liver, immunofluorescence” value is given as “significantly reduced the levels of HBcAg”. Further, the IC50 was 15200 nM with wild type HBV (pHBV 1.3) (Hepatitis B virus); 12900 nM in [2] (Huh-7, read-out: HBeAg IC50); 750 nM in data set [2] (Huh-7, wild-type cells); 100 to 1970 nM with HBV genotypes A‒D; 13700 nM in [3] (Huh-7, ETV-resistant cells); 45700 nM in data set [3] (setting [6]). In the data set on HBV [4] (Hepatitis B virus, read-out: half inhibitory concentration on HBeAg), the IC50 turned out to be 23700 nM. Further, the “HBsAg and cccDNA” value with HBV [1] was “not HBsAg and cccDNA”. Besides, the “secreted HBeAg” value in the data set on HBV [1] is recorded as “inhibits HBeAg in a concentration-dependent manner”. For the same compound, the half-life (usually the time in which the quantity being followed falls by half) in “in vivo” (both, ICR, mouse, in vivo) is 3 to 6.2 h. Moreover, in the data set “in vivo” (both, ICR, mouse, in vivo, po, 10 mg/kg), the bioavailability (usually the share of a dose that reaches the circulation, judged against a reference dose that is usually intravenous) is 24.8 to 39.2%. Besides, the plasma clearance in the data set “in vivo” (po, range over female and male mice) was in the range of 202 to 322 mL/min/kg. Also, at Cp149 protein, the inhibition (in general, the relative decrease from the control value, in per cent) at 40 µM was found to be 53%. In addition, in the data set with HBV [4] (IFNa2 1000 IU/mL plus 11a 10 and 30 μmol/L, HepG2-NTCP), the “inhibition of HBeAg levels in combination with IFNa2” value is “significant synergistic inhibition”.

With `COc1ccccc1/C(Br)=C(\NC(=O)c1ccc([N+](=O)[O-])cc1)C(=O)N1CCCCC1` [AT-130], the IC50 in the data set with HBV [5] was 127 nM.

Turning to `COC(=O)C1=C(C)NC(c2ncc(F)cc2F)=N[C@H]1c1ccc(F)cc1Cl` [Bay 41-4109], the IC50 with HBV [5] (anti-HBV potency) is 50 nM.

For the compound `C=C1[C@H](CO)[C@@H](O)C[C@@H]1n1cnc2c(=O)[nH]c(N)nc21` [ETV, entecavir, reference compound], the IC50 in data set [2] (Huh-7, read-out: HBeAg IC50) is more than 100000 nM; in data set [3] (setting [6]), more than 100000 nM.

As to `CCOC(=O)C1=C(CN2CCO[C@H](CCC(=O)O)C2)NC(c2nccs2)=N[C@H]1c1ccc(F)cc1Br` [HEC72702, 3-((R)-4-(((R)-6-(2-Bromo-4-fluorophenyl)-5-(ethoxycarbonyl)-2-(thiazol-2-yl)-3,6-dihydropyrimidin-4-yl)methyl)morpholin-2-yl)propanoic acid], the IC50 in the data set on HBV [5] was 39 nM.

In the case of `C[C@H](NS(=O)(=O)c1cc(C(=O)Nc2ccc(F)c(C#N)c2)n(C)c1)C(F)(F)F` [JNJ-379], the IC50 with HBV [5] (no reference printed directly) was 69 nM.

In the case of `Cc1cc(NC(=O)c2cccc(S(=O)(=O)N[C@H]3CCOC3)c2)ccc1F` [JNJ-632], in the data set with HBV [5], the IC50 was 120 nM.

Consider `COC(=O)C1=C(CN2CCOCC2)NC(c2nccs2)=N[C@@H]1c1ccc(F)cc1Br` [NVR-010-001-E2], for which, in the data set with HBV [5], the IC50 was 11 nM.

In the case of `CCOC(=O)C1=C(CN2CCN3C(=O)N(CC(C)(C)C(=O)O)C[C@@H]3C2)N=C(c2nccs2)N[C@H]1c1cccc(F)c1C` [RG7907, linvencorvir], in the data set on HBV [5], the IC50 is 6 nM.

For `O=C(NCc1cnc(C(F)(F)F)s1)c1ccc2c(c1)NC(=O)c1ccccc1S2(=O)=O` [vebicorvir], in the data set on HBV [5], the IC50 was 173 nM.

In the case of GLS4, in the data set on wild type HBV (pHBV 1.3) (Wide type (pHBV 1.3)), the IC50 turned out to be 252 nM. At HBcAg, the “concentration needed to significantly inhibit HBcAg's expression” value is “above 10 μmol/L” and the “decrease of HBcAg expression” value amounted to 56.4%. Further, in the data set with HBV [5], the IC50 was 12 nM.
